Measured values from patent US6218102A, “Synthetic peptides and mixtures thereof for detecting HIV antibodies” (priority 1988, dated 2001).
Peptide text beside a SMILES is read from it.

Columns and labels:
Antibodies to HIV-1 [1] = test: ELISA with peptide or peptide mixture as antigen, identifying HIV-1 positive sera; type: binding, human; conditions: single peptide, known HIV-1 positive sera, Table 3
Method: According to this test a peptide or a peptide mixture of the present invention is adsorbed onto the wells of a microtiter plate. The wells are then treated with sera to be tested. After washing, anti-human IgG labeled with peroxidase is added to the wells. The determination of the peroxidase is performed with a corresponding substrate, e.g. with o-phenylene diamine. Also in this procedure the peroxidase can be exchanged by another label, e.g. by a radioactive or fluorescence label.
(§1) Each well of the microtiter plate is saturated with 100 μl of a solution containing a peptide or mixture of peptides (5 μg/ml) and left overnight. The wells are emptied and washed twice with a washing buffer (Tris, 0.043M; NaCl, 0.5M; thimerosal, 0.01% w/v; Tween 20, 0.05% v/v; pH7.4). The wells are then saturated with 0.35 ml of washing buffer for 1 hr. at 37° C. and washed once with the same buffer. Serum samples to be analyzed are diluted with specimen buffer (washing buffer plus casein, 0.05% w/v). The wells are rinsed with washing buffer prior to the addition of the diluted serum sample (0.1 ml). These are left to incubate for 1 hr. at room temperature. The wells are then emptied, washed twice rapidly and then once for two minutes with washing buffer. […] The wells are then emptied and washed twice rapidly with washing buffer and then five times in which the buffer was in contact with the well 2 minutes per washing. The substrate solution (3,3', 5,5'-tetramethylbenzidine, 8 mg per ml of DMSO) is diluted with 100 volumes 0.1M citrate-acetate buffer, pH 5.6 containing 0.1% v/v of 30% H2 O2 and added to each well (0.1 ml per well). After 10 minutes the contents of each well is treated with 0.1 ml 2N H2 SO4 and the optical density read at 450 nm. All determinations are done in duplicate.

Antibodies to HIV-1 [2] = test: ELISA, relative performance of cyclic and non-cyclic HIV-1 peptides at serum dilutions (optical density); type: binding, human
Method: Table 4 is provided to illustrate the sensitivity of cyclic versus non cyclic peptides in the ELISA test by comparing the results of some sera at various dilutions.
as §1

[3] = serum specimen 87V103, dilution 1/50
[4] = serum specimen 1428, dilution 1/50
[5] = serum specimen M-5, dilution 1/50
[6] = serum specimen M-5, dilution 1/100
[7] = serum specimen M-5, dilution 1/200
[8] = serum specimen M-5, dilution 1/800
[9] = serum specimen M-7, dilution 1/50
[10] = serum specimen M-7, dilution 1/100
[11] = serum specimen M-7, dilution 1/200
[12] = serum specimen M-7, dilution 1/400
[13] = serum specimen M-7, dilution 1/800
[14] = serum specimen M-8, dilution 1/50
[15] = serum specimen M-8, dilution 1/100
[16] = serum specimen M-8, dilution 1/200
[17] = serum specimen M-8, dilution 1/400
[18] = serum specimen M-8, dilution 1/800
[19] = serum specimen M-16, dilution 1/50
[20] = serum specimen M-16, dilution 1/100
[21] = serum specimen M-16, dilution 1/200
[22] = serum specimen M-16, dilution 1/400
[23] = serum specimen M-16, dilution 1/800
[24] = serum specimen M-5, dilution 1/400

Compound	% Positive Sera Correctly Identified (Antibodies to HIV-1 [1])	ELISA optical density (Antibodies to HIV-1 [2]; [3])	ELISA optical density (Antibodies to HIV-1 [2]; [4])	ELISA optical density (Antibodies to HIV-1 [2]; [5])	ELISA optical density (Antibodies to HIV-1 [2]; [6])	ELISA optical density (Antibodies to HIV-1 [2]; [7])	ELISA optical density (Antibodies to HIV-1 [2]; [8])	ELISA optical density (Antibodies to HIV-1 [2]; [9])	ELISA optical density (Antibodies to HIV-1 [2]; [10])	ELISA optical density (Antibodies to HIV-1 [2]; [11])	ELISA optical density (Antibodies to HIV-1 [2]; [12])	ELISA optical density (Antibodies to HIV-1 [2]; [13])	ELISA optical density (Antibodies to HIV-1 [2]; [14])	ELISA optical density (Antibodies to HIV-1 [2]; [15])	ELISA optical density (Antibodies to HIV-1 [2]; [16])	ELISA optical density (Antibodies to HIV-1 [2]; [17])	ELISA optical density (Antibodies to HIV-1 [2]; [18])	ELISA optical density (Antibodies to HIV-1 [2]; [19])	ELISA optical density (Antibodies to HIV-1 [2]; [20])	ELISA optical density (Antibodies to HIV-1 [2]; [21])	also measured
CC[C@H](C)[C@@H]1NC(=O)[C@H](CC(C)C)NC(=O)[C@H](CCCCN)NC(=O)CNC(=O)[C@H](CO)NC(=O)[C@@H](NC(=O)CN)CSSC[C@@H](C(=O)N[C@H](C(=O)N[C@H](C(=O)N[C@@H](C)C(=O)N[C@H](C(=O)N2CCC[C@H]2C(=O)N[C@@H](Cc2c[nH]c3ccccc23)C(=O)N[C@@H](CC(N)=O)C(=O)N[C@@H](C)C(=O)N[C@@H](CO)C(=O)O)C(C)C)[C@@H](C)O)[C@@H](C)O)NC1=O [Peptide 80] (HELM PEPTIDE1{G.C.S.G.K.L.I.C.T.T.A.V.P.W.N.A.S}$PEPTIDE1,PEPTIDE1,2:R3-8:R3$$$V2.0)	100%	0.003 OPTICAL DENSITY UNITS	1.047 OPTICAL DENSITY UNITS	2.104 OPTICAL DENSITY UNITS	1.881 OPTICAL DENSITY UNITS	1.599 OPTICAL DENSITY UNITS	0.767 OPTICAL DENSITY UNITS	0.191 OPTICAL DENSITY UNITS	0.067 OPTICAL DENSITY UNITS	0.019 OPTICAL DENSITY UNITS	0.010 OPTICAL DENSITY UNITS	0.005 OPTICAL DENSITY UNITS	1.026 OPTICAL DENSITY UNITS	0.737 OPTICAL DENSITY UNITS	0.520 OPTICAL DENSITY UNITS	0.340 OPTICAL DENSITY UNITS	0.159 OPTICAL DENSITY UNITS	1.601 OPTICAL DENSITY UNITS	1.300 OPTICAL DENSITY UNITS	0.903 OPTICAL DENSITY UNITS	ELISA optical density (Antibodies to HIV-1 [2]; [22]): 0.583 OPTICAL DENSITY UNITS; ELISA optical density (Antibodies to HIV-1 [2]; [23]): 0.329 OPTICAL DENSITY UNITS
CC[C@H](C)[C@H](NC(=O)CNC(=O)[C@H](CC(C)C)NC(=O)[C@H](CC(C)C)NC(=O)[C@H](CCC(N)=O)NC(=O)[C@H](CCC(N)=O)NC(=O)[C@H](CC(=O)O)NC(=O)[C@H](CCCCN)NC(=O)[C@H](CC(C)C)NC(=O)[C@H](Cc1ccc(O)cc1)NC(=O)[C@H](CCCNC(=N)N)NC(=O)[C@H](CCC(=O)O)NC(=O)[C@@H](NC(=O)[C@H](C)NC(=O)[C@H](CC(C)C)NC(=O)[C@@H](NC(=O)[C@@H](N)CCCNC(=N)N)[C@@H](C)CC)C(C)C)C(=O)N[C@@H](Cc1c[nH]c2ccccc12)C(=O)NCC(=O)N[C@H]1CSSC[C@@H](C(=O)N[C@H](C(=O)N[C@H](C(=O)N[C@@H](C)C(=O)N[C@H](C(=O)N2CCC[C@H]2C(=O)N[C@@H](Cc2c[nH]c3ccccc23)C(=O)N[C@@H](CC(N)=O)C(=O)N[C@@H](C)C(=O)N[C@@H](CO)C(=O)O)C(C)C)[C@@H](C)O)[C@@H](C)O)NC(=O)[C@H]([C@@H](C)CC)NC(=O)[C@H](CC(C)C)NC(=O)[C@H](CCCCN)NC(=O)CNC(=O)[C@H](CO)NC1=O [Peptide 87c] (HELM PEPTIDE1{R.I.L.A.V.E.R.Y.L.K.D.Q.Q.L.L.G.I.W.G.C.S.G.K.L.I.C.T.T.A.V.P.W.N.A.S}$PEPTIDE1,PEPTIDE1,20:R3-26:R3$$$V2.0)	99%	0.011 OPTICAL DENSITY UNITS	> 2.0 OPTICAL DENSITY UNITS	> 2.0 OPTICAL DENSITY UNITS	> 2.0 OPTICAL DENSITY UNITS	> 2.0 OPTICAL DENSITY UNITS	1.854 OPTICAL DENSITY UNITS	> 2.0 OPTICAL DENSITY UNITS	> 2.0 OPTICAL DENSITY UNITS	1.729 OPTICAL DENSITY UNITS	1.348 OPTICAL DENSITY UNITS	0.611 OPTICAL DENSITY UNITS	> 2.0 OPTICAL DENSITY UNITS	> 2.0 OPTICAL DENSITY UNITS	1.655 OPTICAL DENSITY UNITS	1.064 OPTICAL DENSITY UNITS	0.384 OPTICAL DENSITY UNITS	> 2.0 OPTICAL DENSITY UNITS	> 2.0 OPTICAL DENSITY UNITS	> 2.0 OPTICAL DENSITY UNITS	ELISA optical density (Antibodies to HIV-1 [2]; [24]): > 2.0 OPTICAL DENSITY UNITS; ELISA optical density (Antibodies to HIV-1 [2]; [22]): > 2.0 OPTICAL DENSITY UNITS; ELISA optical density (Antibodies to HIV-1 [2]; [23]): 1.962 OPTICAL DENSITY UNITS
NH2 -GCSGKLICTTAVPWNAS-COOH (H-GCSGKLICTTAVPWNAS-OH; cysteine pairing not given here) [Peptide 77, gp 41 604-620]	100%	0.000 OPTICAL DENSITY UNITS	0.926 OPTICAL DENSITY UNITS	1.719 OPTICAL DENSITY UNITS	1.459 OPTICAL DENSITY UNITS	1.248 OPTICAL DENSITY UNITS	0.057 OPTICAL DENSITY UNITS	0.142 OPTICAL DENSITY UNITS	0.025 OPTICAL DENSITY UNITS	0.007 OPTICAL DENSITY UNITS	0.001 OPTICAL DENSITY UNITS	0.000 OPTICAL DENSITY UNITS	0.795 OPTICAL DENSITY UNITS	0.507 OPTICAL DENSITY UNITS	0.376 OPTICAL DENSITY UNITS	0.209 OPTICAL DENSITY UNITS	0.062 OPTICAL DENSITY UNITS	1.219 OPTICAL DENSITY UNITS	0.962 OPTICAL DENSITY UNITS	0.613 OPTICAL DENSITY UNITS	ELISA optical density (Antibodies to HIV-1 [2]; [24]): 0.959 OPTICAL DENSITY UNITS; ELISA optical density (Antibodies to HIV-1 [2]; [22]): 0.301 OPTICAL DENSITY UNITS; ELISA optical density (Antibodies to HIV-1 [2]; [23]): 0.205 OPTICAL DENSITY UNITS
NH2 -RILAVERYLKDQQLLGIWGCSGKLICTTAVPWNAS-COOH [Peptide 87]	99%	0.005 OPTICAL DENSITY UNITS	1.463 OPTICAL DENSITY UNITS	1.809 OPTICAL DENSITY UNITS	1.219 OPTICAL DENSITY UNITS	1.513 OPTICAL DENSITY UNITS	1.012 OPTICAL DENSITY UNITS	1.504 OPTICAL DENSITY UNITS	1.329 OPTICAL DENSITY UNITS	1.184 OPTICAL DENSITY UNITS	0.923 OPTICAL DENSITY UNITS	0.571 OPTICAL DENSITY UNITS	1.390 OPTICAL DENSITY UNITS	1.087 OPTICAL DENSITY UNITS	0.883 OPTICAL DENSITY UNITS	0.593 OPTICAL DENSITY UNITS	0.240 OPTICAL DENSITY UNITS	1.846 OPTICAL DENSITY UNITS	1.784 OPTICAL DENSITY UNITS	1.740 OPTICAL DENSITY UNITS	ELISA optical density (Antibodies to HIV-1 [2]; [24]): 1.418 OPTICAL DENSITY UNITS; ELISA optical density (Antibodies to HIV-1 [2]; [22]): 1.634 OPTICAL DENSITY UNITS; ELISA optical density (Antibodies to HIV-1 [2]; [23]): 1.537 OPTICAL DENSITY UNITS
